{
  "source": "patent US20170027896A1",
  "about": "“METHODS AND COMPOSITIONS FOR THE TREATMENT OF VASCULAR MALFORMATION” (IFOM - FONDAZIONE ISTITUTO FIRC DI ONCOLOGIA MOLECOLARE, priority 2014, published 2017)",
  "key": {"[1]": {"tested_on": "b-catenin transcription activity in brain endothelial cells of CCM3-ECKO mice", "assay": "Immunostaining of brain sections of CCM3-ECKO mice (b-gal reporter, progenitor/EndMT markers, VE-cadherin)", "format": "in vivo, mouse", "settings": "dpn 9", "description": "The CCM3-flox/flox mice were generated at TaconicArtemis (Koeln, Germany). Two P-lox sequences were inserted that flank exons 4 and 5 of the murine CCM3 gene, to produce a loss-of-function mutation after excision by Ore recombinase. These CCM3-flox/flox mice were bred with Cdh5(PAC)-CreERT2 mice (Wang et al, 2010) for tamoxifen-inducible endothelial-cell-specific expression of Ore-recombinase and CCM3 gene recombination. The CCM3-flox/flox-Cdh5(PAC)-CreERT2 mice were further bred with BAT-gal mice (Maretto et al, 2003) to monitor the activation of b-catenin transcription signaling, and with Rosa 26-Enhanced […] Fluorescent Protein (EYFP) (Rosa26EYFP) mice (Srinivas et al, 2001) to monitor the expression of Ore-recombinase through the expression of EYFP. Tamoxifen (Sigma) was dissolved in corn oil and 10% ethanol (at 10 mg/ml), and then diluted 1:5 in corn oil before single intragastric administration to dpn 1-2 pups (35 mg/kg body weight), as described in^14. The control (wild-type) mice included CCM3-flox/flox-Cdh5(PAC)-CreERT2-BAT-gal mice treated with the vehicle used to dissolve the tamoxifen (corn oil plus 2% ethanol), and CCM3^+/+-Cdh5(PAC)-CreERT2-BAT-gal mice treated with tamoxifen.\nBrains and eyes from mice pups were fixed in 3% paraformaldehyde immediately after dissection, and this fixing was continued overnight at 4° C. The retinas were dissected from the eyes just before staining as the whole mount. Fixed brains were embedded in 4% low-melting-point agarose and sectioned along the sagittal axis ([…]) using a vibratome (1000 Plus, The Vibratome Company, St. Louis, Mo., US).\nBrain sections and retinas were stained as floating samples in 12-well and 96-well plates, respectively. They were blocked overnight at 4° C. in 1% fish-skin gelatin with 0.5% Triton X100 and 5% donkey serum in phosphate-buffered saline (PBS) containing 0.01% thimerosal. The samples were incubated overnight at 4° C. with the primary antibodies diluted in 1% fish-skin gelatin with 0.25% Triton X100 in PBS containing 0.01% thimerosal. Following washing with 0.1% Triton X100 in PBS, the secondary antibodies were added for 4 h at room temperature in 1% fish-skin gelatin with 0.25% Triton X100 in PBS containing 0.01% thimerosal. The incubation with DAPI was in PBS for 4 h, which was followed by several washes in PBS, post-fixating with 3% paraformaldehyde for 5 min at room temperature, and further washes in PBS. The brain sections were mounted in Vectashield with DAPI, and the coverslips fixed with nail varnish; the retinas were mounted in Prolong gold with DAPI.\n(§1) The following antibodies were used: anti-Pecam (hamster; MAB1398Z, Millipore); anti-b-galactosidase (chicken; ab9361, Abcam); anti-VE-cadherin (rat monoclonal; 550548, BD Biosciences); anti-VE-cadherin (goat; sc-6458, Santa Cruz); anti-active-b-catenin (mouse monoclonal clone 8E7) dephosphorylated on Ser37 and Thr41, Millipore); anti-total-b-catenin (mouse monoclonal; Cell Signaling); anti-S100a4 (rabbit; 07-2274, Millipore); anti-Klf4 (goat; AF3158, R&D); anti-CD44 (rat; 553131, BD Biosciences); anti-ID1 (rabbit; sc-488, Santa Cruz); anti-aSMA (mouse monoclonal; F3777, Sigma); anti-GFP (rabbit; A-6455, Invitrogen); anti-podocalyxin (goat; AF1556, R&D); anti-phospho-histone H3 (rabbit; ab51776, Millipore); anti-CCM3 (rabbit; Eurogentec); anti-p-Smad1 (rabbit; 9516, Cell Signaling); anti-endomucin (rabbit; sc-65495, Santa Cruz); anti-α-tubulin (mouse monoclonal; T9026, Sigma)."}, "[2]": {"tested_on": "CCM3-knockout brain endothelial cells in primary culture", "assay": "rtPCR of b-catenin target genes in primary cultures of CCM3-knockout brain endothelial cells", "format": "cell-based, mouse", "design": "dose or concentration left out as unconfirmed", "settings": "48 h", "description": "Endothelial cells from the CCM3-flox/flox mice (8-10 weeks old) were isolated from the brain as previously described^13. Recombination of the floxed CCM3 gene was induced by treating the cells at culture day 1 with the AdenoCre viral vector, as previously described^59. The control endothelial cells were an aliquot of the same endothelial cell preparation treated with AdenoGFP, instead of AdenoCre. The cells were then maintained in culture for up to a further 7 days before analysis, as described in the main text. Drug treatments were for 48 h before the processing of the cells. Drugs were added to confluent cells for 48 h before the indicated assays. The final concentrations used were: […] (all from Sigma-Aldrich). As all of these were dissolved in DMSO, control treatment (vehicle) was 0.1% DMSO final concentration, as for drug treatment. RNA extraction was performed with RNeasy kits (74106; Promega). The RNA (1 μg) was reverse transcribed with random hexamers (High Capacity cDNA Archive kits; Applied Biosystems). […] For each sample, the expression levels were determined with the comparative threshold cycle (Ct) method, and normalized to the housekeeping genes encoding 18S and glyceraldehyde-3-phosphate dehydrogenase (GAPDH). […]"}, "[3]": {"tested_on": "CCM3-knockout endothelial cell line", "assay": "Immunostaining of CCM3-knockout endothelial cell line", "format": "cell-based, mouse", "method": "In some experiments, endothelial cell lines from the lungs of CCM3-flox/flox mice (8-10 weeks old) were immortalized in culture through retroviral expression of polyoma middle T gene^60. […] These cells were then maintained in culture for up to 25 passages without detectable changes in the effects of this CCM3 ablation.\nDrugs were added to confluent cells for 48 h before the indicated assays. The final concentrations used were: […] (all from Sigma-Aldrich). As all of these were dissolved in DMSO, control treatment (vehicle) was 0.1% DMSO final concentration, as for drug treatment.\nCells cultured in vitro were fixed and stained as described previously^46.\nas §1"}, "[4]": {"tested_on": "CCM3-ECKO mice", "assay": "Bleeding and mortality in drug-treated CCM3-ECKO mice", "settings": "30 mg/kg body weight intragastrically, daily", "method": "Sulindac sulfide (Sigma) and sulindac sulfone (Sigma) were both dissolved in DMSO and further diluted 1:50 in corn oil. They were administered intragastrically, daily (30 mg/kg body weight), starting one day after the induction of recombination. The control mice were treated in parallel with vehicle only (corn oil plus 2% DMSO)."}},
  "note": "Entries after “also recorded” stand apart in the source; their conditions may differ.",
  "data": [
    {"compound": "CSc1ccc(/C=C2/C(C)=C(CC(=O)O)c3cc(F)ccc32)cc1", "note": "[sulindac sulfide, (Z)-5-Fluoro-2-methyl-1-[4-(methylthio)benzylidene]indene-3-acetic acid]", "values": [
      {"measurement": "expression of nuclear reporter gene b-gal in endothelial cells of brain vasculature", "setting": "[1]; CCM3-ECKO BAT-gal pups", "result": "abolition; also recorded: inhibited"},
      {"measurement": "VE-cadherin localization at endothelial cell-cell junctions in brain vessels", "setting": "[1]; CCM3-ECKO pups", "result": "better localized at endothelial cell-cell junctions"},
      {"measurement": "expression of b-catenin target genes / progenitor and EndMT markers (Klf4, S100a4, Id1) in brain endothelium", "setting": "[1]; CCM3-ECKO pups, immunostaining", "result": "strongly reduces; also recorded: inhibited"},
      {"measurement": "expression of endogenous b-catenin target genes (Klf4, Ly6a, S100a4, Id1; rtPCR)", "setting": "[2]", "result": "effectively inhibited"},
      {"measurement": "apical distribution of podocalyxin", "setting": "[3]", "result": "re-establishes the correct apical distribution"},
      {"measurement": "VE-cadherin at cell-cell contacts", "setting": "[3]; 48 h", "result": "more localized to cell-cell contacts"},
      {"measurement": "nuclear accumulation of active b-catenin / distribution to adherens junctions", "setting": "[3]; 48 h", "result": "restored the distribution of active b-catenin to the adherens junctions"},
      {"measurement": "overexpression of progenitor/EndMT marker proteins (Klf4, S100a4, Id1, CD44)", "setting": "[3]; 48 h", "result": "strongly reduced; also recorded: inhibited"},
      {"measurement": "bleeding from vascular lesions or mortality versus vehicle-treated mice", "setting": "[4]", "result": "did not observe either increased bleeding from vascular lesions or mortality"}
    ]}
  ]
}
